{"source": "ChEMBL document CHEMBL2331418", "about": "“Synthesis of tartaric acid analogues of FR258900 and their evaluation as glycogen phosphorylase inhibitors” (Bioorg Med Chem Lett, 2013)", "key": {"[1]": {"assay": "Competitive inhibition of rabbit muscle glycogen phosphorylase b using constant concentration of glucose-1-phosphate, glycogen and varying concentration of AMP as substrate", "format": "tissue-based, Oryctolagus cuniculus, Muscle tissue"}, "[2]": {"assay": "Non-competitive inhibition of rabbit muscle glycogen phosphorylase b using constant concentration of AMP, glycogen and varying concentration of glucose-1-phosphate as substrate", "format": "tissue-based, Oryctolagus cuniculus, Muscle tissue"}, "[3]": {"target": "T1, Glycogen phosphorylase, muscle form (Oryctolagus cuniculus, UniProt P00489)", "T1 sequence (P00489 whole entry)": "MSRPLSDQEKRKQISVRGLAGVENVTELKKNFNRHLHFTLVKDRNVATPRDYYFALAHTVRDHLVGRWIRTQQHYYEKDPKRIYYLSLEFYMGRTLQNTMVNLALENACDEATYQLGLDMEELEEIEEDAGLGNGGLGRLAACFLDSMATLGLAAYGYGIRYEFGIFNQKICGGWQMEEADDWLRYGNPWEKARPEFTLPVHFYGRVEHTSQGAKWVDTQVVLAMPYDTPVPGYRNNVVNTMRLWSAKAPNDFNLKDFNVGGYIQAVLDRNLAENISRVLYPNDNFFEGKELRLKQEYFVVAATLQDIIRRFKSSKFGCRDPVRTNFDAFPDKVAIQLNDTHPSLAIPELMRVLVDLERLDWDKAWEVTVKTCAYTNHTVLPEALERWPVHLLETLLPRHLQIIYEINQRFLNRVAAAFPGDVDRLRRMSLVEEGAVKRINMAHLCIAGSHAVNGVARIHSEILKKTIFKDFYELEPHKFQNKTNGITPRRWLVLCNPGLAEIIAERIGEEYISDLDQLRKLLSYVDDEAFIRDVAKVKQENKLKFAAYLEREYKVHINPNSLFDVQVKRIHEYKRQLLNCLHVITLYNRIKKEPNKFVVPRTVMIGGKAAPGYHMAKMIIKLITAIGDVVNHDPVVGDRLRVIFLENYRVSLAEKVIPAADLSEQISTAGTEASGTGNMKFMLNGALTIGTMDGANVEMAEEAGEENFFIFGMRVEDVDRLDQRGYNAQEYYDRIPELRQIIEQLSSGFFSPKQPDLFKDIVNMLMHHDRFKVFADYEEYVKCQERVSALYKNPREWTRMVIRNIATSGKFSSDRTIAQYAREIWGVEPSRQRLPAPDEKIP", "assay": "Inhibition of rabbit muscle glycogen phosphorylase"}, "[4]": {"target": "T2, Glycogen phosphorylase, liver form (Homo sapiens, UniProt P06737)", "T2 sequence (P06737 whole entry)": "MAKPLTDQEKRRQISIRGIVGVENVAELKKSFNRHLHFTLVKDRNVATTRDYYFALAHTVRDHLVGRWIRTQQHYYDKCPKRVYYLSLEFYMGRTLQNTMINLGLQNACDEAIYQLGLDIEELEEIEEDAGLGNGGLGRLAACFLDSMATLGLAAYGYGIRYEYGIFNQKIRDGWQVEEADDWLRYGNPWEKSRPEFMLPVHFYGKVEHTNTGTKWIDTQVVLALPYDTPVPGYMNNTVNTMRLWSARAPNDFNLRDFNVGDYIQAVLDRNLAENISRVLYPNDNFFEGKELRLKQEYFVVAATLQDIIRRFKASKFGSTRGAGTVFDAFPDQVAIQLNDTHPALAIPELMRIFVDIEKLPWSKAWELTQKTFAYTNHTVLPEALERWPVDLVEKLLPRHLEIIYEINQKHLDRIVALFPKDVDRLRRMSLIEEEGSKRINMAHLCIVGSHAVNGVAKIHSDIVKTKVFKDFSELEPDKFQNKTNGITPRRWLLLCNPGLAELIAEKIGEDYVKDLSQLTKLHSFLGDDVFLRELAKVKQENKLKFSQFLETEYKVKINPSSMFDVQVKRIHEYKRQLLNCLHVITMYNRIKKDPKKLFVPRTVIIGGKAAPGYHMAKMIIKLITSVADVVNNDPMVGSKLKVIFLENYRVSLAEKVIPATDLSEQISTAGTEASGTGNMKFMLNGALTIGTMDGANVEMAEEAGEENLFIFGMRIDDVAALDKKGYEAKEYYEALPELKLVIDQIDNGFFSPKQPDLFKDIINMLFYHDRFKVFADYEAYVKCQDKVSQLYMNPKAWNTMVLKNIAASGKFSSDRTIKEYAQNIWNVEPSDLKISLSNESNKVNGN", "assay": "Inhibition of human liver glycogen phosphorylase"}}, "data": [{"smiles": "O=C(/C=C/c1ccc(O)cc1)O[C@@H](C(=O)O)[C@@H](OC(=O)/C=C/c1ccc(O)cc1)C(=O)O", "values": [{"measurement": "Ki", "setting": "[1]", "value": 11.3, "unit": "µM"}, {"measurement": "Ki", "setting": "[2]", "value": 300, "unit": "µM"}]}, {"smiles": "O=C(/C=C/c1ccc(O)cc1)O[C@H](C(=O)O)[C@@H](OC(=O)/C=C/c1ccc(O)cc1)C(=O)O", "values": [{"measurement": "Ki", "setting": "[1]", "value": 5.68, "unit": "µM"}, {"measurement": "Ki", "setting": "[2]", "value": 71.4, "unit": "µM"}]}, {"smiles": "O=C(O)C[C@H](OC(=O)/C=C/c1ccc(O)cc1)[C@@H](OC(=O)/C=C/c1ccc(O)cc1)C(=O)O", "values": [{"measurement": "Ki", "setting": "[1]", "value": 0.2, "unit": "µM"}, {"measurement": "Ki", "setting": "[3]", "value": 0.46, "unit": "µM"}, {"measurement": "Ki", "setting": "[2]", "value": 5.47, "unit": "µM"}, {"measurement": "IC50", "setting": "[4]", "value": 2.5, "unit": "µM"}]}, {"smiles": "O=C(/C=C/c1ccc(O)cc1)O[C@H](C(=O)O)[C@H](OC(=O)/C=C/c1ccc(O)cc1)C(=O)O", "values": [{"measurement": "Ki", "setting": "[1]", "value": 26.4, "unit": "µM"}, {"measurement": "Ki", "setting": "[2]", "value": 109, "unit": "µM"}]}]}
